Test results taken from PubChem BioAssay (NCI).
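Cells were grown in 96-well plates and exposed to each compound for 48 hours at five concentrations; endpoints were interpolated linearly between bracketing concentrations, or set to the highest concentration if not reached. Definition used: TGI = concentration required for complete inhibition of growth.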 Where a SMILES comes first, the peptide text is derived from it. [ ]: non-standard residue; d: D form. The star is where a group is joined. Bn2Val = CC(C)[C@@H](C(=O)*)N(Cc1ccccc1)Cc1ccccc1; NH(3,4-diMeO-benzyl) = COc1ccc(CN*)cc1OC; NMeV = CN[C@H](C(=O)O)C(C)C

Assays:
Experiment in all cases: NCI tumour cell line growth inhibition, 48 h
SR leukemia = test system: SR leukemia
PC-3 prostate = test system: PC-3 prostate
OVCAR-4 ovarian = test system: OVCAR-4 ovarian
RPMI-8226 leukemia = test system: RPMI-8226 leukemia
CAKI-1 renal = test system: CAKI-1 renal
HCC-2998 colon = test system: HCC-2998 colon
SF-295 CNS = test system: SF-295 CNS
CCRF-CEM leukemia = test system: CCRF-CEM leukemia
SNB-75 CNS = test system: SNB-75 CNS
TK-10 renal = test system: TK-10 renal
EKVX NSCLC = test system: EKVX NSCLC
NCI-H23 lung = test system: NCI-H23 lung
SF-539 CNS = test system: SF-539 CNS
NCI-H460 lung = test system: NCI-H460 lung
OVCAR-5 ovarian = test system: OVCAR-5 ovarian
SN12C renal = test system: SN12C renal
NCI-H226 lung = test system: NCI-H226 lung
NCI-H522 lung = test system: NCI-H522 lung
A549 NSCLC = test system: A549 NSCLC
NCI/ADR-RES ovarian = test system: NCI/ADR-RES ovarian

Compound | TGI (SR leukemia) | TGI (PC-3 prostate) | TGI (OVCAR-4 ovarian) | TGI (RPMI-8226 leukemia) | TGI (CAKI-1 renal) | TGI (HCC-2998 colon) | TGI (SF-295 CNS) | TGI (CCRF-CEM leukemia) | TGI (SNB-75 CNS) | TGI (TK-10 renal) | TGI (EKVX NSCLC) | TGI (NCI-H23 lung) | TGI (SF-539 CNS) | TGI (NCI-H460 lung) | TGI (OVCAR-5 ovarian) | TGI (SN12C renal) | TGI (NCI-H226 lung) | TGI (NCI-H522 lung) | TGI (A549 NSCLC) | TGI (NCI/ADR-RES ovarian)
CC1(O)Oc2ccc3ccccc3c2C=C1C(N)=O (stereo not given) | > 100 µM | > 100 µM | > 100 µM | > 100 µM | > 100 µM | > 100 µM | > 100 µM | > 100 µM | > 100 µM | > 100 µM | > 100 µM | > 100 µM | > 100 µM | > 100 µM |  |  |  |  |  | 
CC12C(=O)OC(=O)C1(C)C1C=CC2O1 (stereo not given) | > 100 µM | > 100 µM |  | > 100 µM | > 100 µM | > 100 µM | > 100 µM | > 100 µM | > 100 µM | > 100 µM | > 100 µM | > 100 µM | > 100 µM | > 100 µM | > 100 µM | > 100 µM | 48.1 µM | > 100 µM | > 100 µM | > 100 µM
CC1c2cc(c3c(c2O)CN([C@@H](C)C2CCCCC2)CO3)C(C)c2cc(c3c(c2O)CN([C@@H](C)C2CCCCC2)CO3)C(C)c2cc(c3c(c2O)CN([C@@H](C)C2CCCCC2)CO3)C(C)c2cc1c1c(c2O)CN([C@@H](C)C2CCCCC2)CO1 (stereo not given in full) | 1.44 µM |  | 3.03 µM | 2.15 µM | 2.95 µM | 2.82 µM |  | 1.45 µM | 2.77 µM | 3.19 µM | 2.45 µM |  |  | 2.53 µM | 4.04 µM | 2.29 µM | 2.22 µM | 1.58 µM | > 100 µM | 2.67 µM
CCCc1c(C(=O)OCC)[nH]c(C(=O)CCC(=O)c2[nH]c(C(=O)OCC)c(CCC)c2C(=O)OCC)c1C(=O)OCC | > 100 µM |  | > 100 µM | > 100 µM | > 100 µM | > 100 µM | > 100 µM | > 100 µM | 62.5 µM | > 100 µM | > 100 µM | > 100 µM | > 100 µM | > 100 µM | > 100 µM | > 100 µM | > 100 µM | > 100 µM | > 100 µM | 
O=c1cc(-c2cccc(OCc3ccccc3)c2)[nH]c2cc3c(cc12)OCO3 | > 100 µM | > 100 µM | > 27.8 µM | 0.766 µM | > 50.8 µM | 0.751 µM | 14.4 µM | 0.481 µM |  | 24.7 µM | > 100 µM | 15 µM | 0.564 µM | 11.2 µM | > 100 µM | > 22.1 µM | 7.79 µM | 1.42 µM | > 22.7 µM | 0.462 µM
C=C(CN)CO[Si](C)(C)C(C)(C)C | > 100 µM | > 100 µM |  | > 100 µM | > 100 µM | > 100 µM | > 100 µM | > 100 µM | > 100 µM | > 100 µM | > 100 µM | > 100 µM | > 100 µM | > 100 µM | > 100 µM | > 100 µM | > 100 µM | > 100 µM | > 100 µM | > 100 µM
Fc1ccc2c3c([nH]c2c1)CCNC3 | > 100 µM |  | > 100 µM | > 100 µM |  | > 100 µM | > 100 µM | > 100 µM | > 100 µM | > 100 µM | > 100 µM | > 100 µM | > 100 µM | > 100 µM | > 100 µM | > 100 µM | > 100 µM |  | > 100 µM | > 100 µM
O=c1[nH]c2cc([N+](=O)[O-])ccc2nc1/C=C(\O)c1ccc(Cl)cc1 | 38.9 µM | 32.5 µM | 41.1 µM | 65.2 µM | 33.1 µM | 72.3 µM | 27.4 µM | 33.8 µM | 55 µM | 16.5 µM | 35.5 µM | 29.4 µM | 23.1 µM | 24 µM | 46 µM |  | 40.6 µM |  | 22.6 µM | 28.4 µM
COc1cc2c(cc1OC)C(=O)/C(=C/c1ccc([N+](=O)[O-])cc1)CC2 | > 10 µM | > 10 µM | > 10 µM | > 10 µM | > 10 µM | > 10 µM | > 10 µM | > 10 µM |  | > 10 µM | > 10 µM | > 10 µM | > 10 µM | > 10 µM | > 10 µM | > 10 µM | > 10 µM |  | > 10 µM | > 10 µM
CN(C)c1nc(=NCc2cccnc2)ss1 | > 10 µM | > 10 µM | > 10 µM | > 10 µM | > 10 µM |  | > 10 µM | > 10 µM | > 10 µM | > 10 µM | > 10 µM | > 10 µM |  |  |  | > 10 µM |  |  | > 10 µM | 
CC1C(O)Oc2cc3c(cc2C1c1ccccc1O)OCO3 (stereo not given) | 25.2 µM | 65.7 µM |  | 48.1 µM | > 100 µM | > 100 µM | 65.5 µM | 51.2 µM | 87.4 µM | 89.6 µM | > 100 µM | > 100 µM | 79.2 µM | 64.1 µM | > 100 µM | > 100 µM | 69.2 µM | 42.9 µM | > 100 µM | 
CC(C)N1[C@@H]2CCCC[C@H]2N(C(C)C)P1(=O)C(=O)/C=C/c1ccccc1 | 8.27 µM | 15.2 µM | 3.39 µM | 9.32 µM | 7.31 µM | 5.33 µM | 23.4 µM |  |  | 12.9 µM | 13.8 µM | 6.42 µM | 6.34 µM | 10.3 µM | 6.66 µM | 3.96 µM | 24.6 µM | 3.26 µM | 12.4 µM | 4.81 µM
COc1ccc(CNC(=O)[C@@H]2CCCN2C(=O)[C@@H]2CCCN2C(=O)[C@H](C(C)C)N(C)C(=O)[C@@H](NC(=O)[C@H](C(C)C)N(Cc2ccccc2)Cc2ccccc2)C(C)C)cc1OC (Bn2Val-V[NMeV]PP-{NH(3,4-diMeO-benzyl)}) | > 100 µM | 30.8 µM | 42.6 µM |  | 38.1 µM |  | 29.9 µM | > 100 µM | 25.7 µM | 29.5 µM | 26.7 µM | 38.6 µM | 34 µM | > 60.5 µM | 34 µM | 29.9 µM | 33.4 µM | 20.6 µM | 38.4 µM | 48.2 µM
